These results are taken from patent US9416141B2 (University of Washington through its Center for …, priority 2012, dated 2016).

For the experiment, the system named is hair cells. As to the kind of experiment: Hair cell toxicity assay in zebrafish (neomycin-induced hair cell death, DASPEI staining of neuromasts). The settings on record: for Emax at 2.8 µM: maximum observed @ 2.8 μM test compound; for EC50: zebrafish larvae 5-7 dpf, 1 h pre-treatment, then 200 micromolar neomycin + test compound 30 min, read-out: HC50 (concentration that would produce 50% hair cell survival); for Emax at 25 µM: maximum observed @ 25 μM test compound. It counts as in vivo. The protocol:
Zebrafish are bred and newly fertilized embryos are collected the week prior and raised at 28.5° C. in petri dishes containing embryo medium. Newly hatched free-swimming larvae are fed paramecium and dry fish food at 4 days post fertilization (dpf) with lights on. For treatment, fish 5-7 dpf are transferred to cell culture baskets and place within a well of a 6-well plate containing 7 milliliters of 1× embryo medium. Typically, tests are done with ten fish per basket but work well with up to 50 fish. All treatment and wash volumes are 7 milliliters. • 1. Fish are pre-treated with test compound for 1 hour. […] Treat with 200 micromolar neomycin (neomycin sulfate, Sigma, St. Louis, Mo., catalog #N1142)+test compound for 30 minutes. • 3. Rinse fish briefly 4 times in embryo medium and add 700 μl of 0.05% DASPEI (2-{4-(dimethylamino)styryl}-N-ethylpyridinium iodide, Molecular Probes, Eugene, Oreg.) and allowed to stain for 15 minutes. • 4. Rinse twice in embryo medium and add 350 μl MS222 (0.55 ug/ml final concentration, 3-aminobenzoic acid ethyl ester, methansulfoneate salt, Sigma, St. Louis, Mo.) to anesthetize. • 5. View with epifluorescence dissecting microscope equipped with a DAPSEI filter set (excitation […], Chroma Technologies, Brattleboro, Vt.). For assessment of initial dose response curves, fish are transferred to wide depression slide with wide-bore pipette. The DASPEI staining of ten neuromasts (SO1, SO2, IO1, IO2, IO3, IO4, M2, MI1, MI2 and O2) on one side of an animal are evaluated. Each neuromast is scored for presence of DASPEI staining (score=2), reduced DASPEI staining (score=1) or absence of DASPEI staining (score=0). Total scores for an animal are tabulated, to give a composite score that can range from 0 to 20. Average scores and standard deviations are calculated for animals in each treatment group. Scores are normalized to control group (vehicle only, no drug, no neomycin) and expressed as % hair cell survival. HCmax is the maximum protection (hair cell survival) observed. • 6. If at least 50% hair cells survive, the HC50 (concentration that would produce 50% hair cell survival) is calculated as a linear extrapolation from the nearest concentrations of protective drug that produce hair cell survival below and above 50%. If less than 50% hair cells survive, the HC50 is not determined. 1× embryo media (standard lab EM): • 1 mM MgSO4, • 0.15 mM KH2PO4, • 0.05 mM Na2HPO4, • 1 mM CaCl2, • 0.5 mM KCl • 15 mM NaCl • 0.7 mM NaHCO3

Setting [1] is: Danio rerio, 200 micromolar neomycin, read-out: Max HC Protection (HCmax, % hair cell survival).

Structures can show the parent of a compound that is named as a salt. Where two headings read alike, the source gives them in different places.

As to `CC(C)(C)c1ccc(CCC(=O)NCCCN2CCc3c(sc(NC(=O)Nc4ccc(Cl)cc4)c3C(N)=O)C2)cc1` [Example 213, 6-{3-[3-(4-tert-butylphenyl)propanamido]propyl}-2-{[(4-chlorophenyl)carbamoyl]amino}-4H,5H,6H,7H-thieno[2,3-c]pyridine-3-carboxamide], the Emax at 2.8 µM under setting [1] was 92%. Also, under “Danio rerio”, the EC50 is below 1 µM.

`NC(=O)c1c(NC(=O)Nc2ccc(Cl)cc2)sc2c1CCN1CCCCC21` (racemic) [Example 118, (+/−)-2-[3-(4-Chlorophenyl)ureido]-5,7,8,9,10,10a-hexahydro-4H-thieno[2,3-a]quinolizine-3-carboxamide hydrochloride]: the Emax at 25 µM under setting [1] was 99%. Moreover, under “Danio rerio”, the EC50 lay within 1 to 10 µM.

`CCN1CCc2c(sc(NC(=O)Nc3cccc(C#N)c3)c2C(N)=O)C1` [Example 73, 2-[3-(3-Cyanophenyl)ureido]-6-ethyl-4,5,6,7-tetrahydrothieno[2,3-c]pyridine-3-carboxamide hydrochloride]: the Emax at 25 µM under setting [1] turned out to be 51%. Moreover, where the note is “Danio rerio”, the EC50 is above 10 µM. For `CC(C)(C)OC(=O)NCCCN1CCc2c(sc(NC(=O)Nc3ccc(Cl)cc3)c2C(N)=O)C1` [Example 205, tert-butyl N-[3-(3-carbamoyl-2-{[(4-chlorophenyl)carbamoyl]amino}-4H,5H,6H,7H-thieno[2,3-c]pyridin-6-yl)propyl]carbamate], the Emax at 6.3 µM (Danio rerio, maximum observed @ 6.3 μM test compound, 200 micromolar neomycin, read-out: Max HC Protection (HCmax, % hair cell survival)) amounted to 81%. The EC50 (Danio rerio) fell in the range of 1 to 10 µM. As for `CCN1CCc2sc(NC(=O)Nc3ccc(Cl)cc3)c(C(N)=O)c2C1` [Example 116, 2-[3-(4-Chlorophenyl)ureido]-5-ethyl-4,5,6,7-tetrahydrothieno[3,2-c]pyridine-3-carboxamide hydrochloride], under setting [1], the Emax at 25 µM came to 82%. In addition, where the note is “Danio rerio”, the EC50 lay in the range of 1 to 10 µM. With `NC(=O)c1c(NC(=O)Nc2ccc3ccccc3c2)sc2c1CCN(CC1CCC1)C2` [Example 35, 6-(Cyclobutylmethyl)-2-[3-(naphthalen-2-yl)ureido]-4,5,6,7-tetrahydrothieno[2,3-c]pyridine-3-carboxamide hydrochloride], the Emax at 2.8 µM under setting [1] came out at 42%. In the case of `CN1C2CCC1c1sc(NC(=O)Nc3ccc(Cl)cc3)c(C(N)=O)c1C2` (single isomer, unassigned; (+)) [Example 128, (+)-2-[3-(4-Chlorophenyl)ureido]-9-methyl-5,6,7,8-tetrahydro-4H-5,8-epiminocyclohepta[b]thiophene-3-carboxamide hydrochloride], the EC50 (hydrochloride) is below 1 µM.

As for `C[N+]12CCCCC1Cc1c(sc(NC(=O)Nc3ccc(Cl)cc3)c1C(N)=O)C2` (racemic) [Example 177, (+/−)-3-Carbamoyl-2-[3-(4-chlorophenyl)ureido]-9-methyl-4,4a,5,6,7,8,9,10-octahydrothieno[3,2-b]quinolizin-9-ium iodide], the Emax at 25 µM under setting [1] worked out at 97%. The EC50 (Danio rerio) was in the range of 1 to 10 µM. `NC(=O)c1c(NC(=O)Nc2ccc(Cl)cc2)sc2c1CCN(CC(=O)O)C2` [Example 61, 2-{3-Carbamoyl-2-[3-(4-chlorophenyl)ureido]-4,5-dihydrothieno[2,3-c]pyridin-6(7H)-yl}acetic acid hydrochloride]: the Emax at 25 µM under setting [1] came to 24%. With `CN1C(C)(C)Cc2c(sc(NC(=O)Nc3ccc(Cl)cc3)c2C(N)=O)C1(C)C` [Example 120, 2-[3-(4-chlorophenyl)ureido]-5,5,6,7,7-pentamethyl-4,5,6,7-tetrahydrothieno[2,3-c]pyridine-3-carboxamide hydrochloride], the Emax at 2.8 µM under setting [1] is 81%. In addition, the EC50 (Danio rerio) is 1 to 10 µM. `CCN1CCc2c(sc(NC(=O)Nc3ccc(Cl)cc3)c2C(=O)NCC2CC2)C1` [Example 97, 2-[3-(4-Chlorophenyl)ureido]-N-(cyclopropylmethyl)-6-ethyl-4,5,6,7-tetrahydrothieno[2,3-c]pyridine-3-carboxamide hydrochloride]: the Emax at 8.3 µM (Danio rerio, maximum observed @ 8.3 μM test compound, 200 micromolar neomycin, read-out: Max HC Protection (HCmax, % hair cell survival)) turned out to be 37%. Take `CC(C)OC(=O)CC[N+]1(C)CCc2c(sc(NC(=O)Nc3ccc(Cl)cc3)c2C(N)=O)C1` (centres unmarked) [Example 159, 3-Carbamoyl-2-[3-(4-chlorophenyl)ureido]-6-(3-isopropoxy-3-oxopropyl)-6-methyl-4,5,6,7-tetrahydrothieno[2,3-c]pyridin-6-ium iodide]: under setting [1], the Emax at 2.8 µM was determined as 84%. Further, the EC50 (Danio rerio) was below 1 µM. As to `CC(C)CN1CCc2c(sc(NC(=O)Nc3ccc4ccccc4c3)c2C(N)=O)C1` [Example 34, 6-Isobutyl-2-[3-(naphthalen-2-yl)ureido]-4,5,6,7-tetrahydrothieno[2,3-c]pyridine-3-carboxamide hydrochloride], the Emax at 25 µM under setting [1] was found to be 87%. Also, the EC50 (Danio rerio) was in the range of 1 to 10 µM. Consider `C[N+]1(C2CCc3c(sc(NC(=O)Nc4ccc(Cl)cc4)c3C(N)=O)C2)CCC1` (centres unmarked) [Example 170, 1-{3-Carbamoyl-2-[3-(4-chlorophenyl)ureido]-4,5,6,7-tetrahydrobenzo[b]thiophen-6-yl}-1-methylazetidin-1-ium iodide], for which the Emax at 25 µM under setting [1] stood at 85%. Moreover, under “Danio rerio”, the EC50 fell in the range of 1 to 10 µM. As to `CC[N+]1(CC2CCCCC2)CCc2c(sc(NC(=O)Nc3ccc(Cl)cc3)c2C(N)=O)C1` (centres unmarked) [Example 195, 3-Carbamoyl-2-[3-(4-chlorophenyl)ureido]-6-(cyclohexylmethyl)-6-ethyl-4,5,6,7-tetrahydrothieno[2,3-c]pyridin-6-ium trifluoroacetate], the Emax at 0.9 µM (Danio rerio, maximum observed @ 0.9 μM test compound, 200 micromolar neomycin, read-out: Max HC Protection (HCmax, % hair cell survival)) was 74%. Further, the EC50 (Danio rerio) is below 1 µM. For `CCN1CCc2c(sc(NC(=O)Nc3cncc(Cl)c3)c2C(N)=O)C1` [Example 77, 2-[3-(5-Chloropyridin-3-yl)ureido]-6-ethyl-4,5,6,7-tetrahydrothieno[2,3-c]pyridine-3-carboxamide dihydrochloride], under setting [1], the Emax at 25 µM turned out to be 45%. Consider `C[N+](C)(C)C1CCc2c(sc(NC(=O)Nc3ccc(Cl)cc3)c2C(N)=O)C1` (centres unmarked) [Example 169, 3-Carbamoyl-2-[3-(4-chlorophenyl)ureido]-N,N,N-trimethyl-4,5,6,7-tetrahydrobenzo[b]thiophen-6-aminium iodide], for which the Emax at 25 µM under setting [1] amounted to 101%. The EC50 (Danio rerio) fell in the range of 1 to 10 µM. For `CC(C)(C)OC(=O)CC[N+]1(C)CCc2c(sc(NC(=O)Nc3ccc(Cl)cc3)c2C(N)=O)C1` (centres unmarked) [Example 151, 6-(3-tert-Butoxy-3-oxopropyl)-3-carbamoyl-2-[3-(4-chlorophenyl)ureido]-6-methyl-4,5,6,7-tetrahydrothieno[2,3-c]pyridin-6-ium iodide], the Emax at 2.8 µM under setting [1] worked out at 105%. Moreover, the EC50 (Danio rerio) was below 1 µM. In the case of `CCN1CCc2c(sc(NC(=O)C3(c4ccc(Cl)cc4)CC3)c2C(N)=O)C1` [Example 105, 2-[1-(4-chlorophenyl)cyclopropanecarboxamido]-6-ethyl-4,5,6,7-tetrahydrothieno[2,3-c]pyridine-3-carboxamide], the Emax at 25 µM under setting [1] was 7%. Regarding `CCOC(=O)CCN1CCc2c(sc(NC(=O)Nc3ccc(Cl)cc3)c2C(N)=O)C1` [Example 56, Ethyl 3-{3-carbamoyl-2-[3-(4-chlorophenyl)ureido]-4,5-dihydrothieno[2,3-c]pyridin-6(7H)-yl}propanoate hydrochloride], under setting [1], the Emax at 2.8 µM turned out to be 48%. `CCN1CCc2c(sc(NC(=O)Nc3ccc(C(F)(F)F)cc3)c2C(N)=O)C1` [Example 221, 6-ethyl-2-({[4-(trifluoromethyl)phenyl]carbamoyl}amino)-4H,5H,6H,7H-thieno[2,3-c]pyridine-3-carboxamide]: the Emax at 25 µM under setting [1] was determined as 68%. For the same compound, the EC50 (Danio rerio) lay within 1 to 10 µM. Take `CCN1CCc2c(sc(NC(=O)Nc3cnc4ccccc4c3)c2C(N)=O)C1` [Example 78, 6-Ethyl-2-[3-(quinolin-3-yl)ureido]-4,5,6,7-tetrahydrothieno[2,3-c]pyridine-3-carboxamide dihydrochloride]: the Emax at 25 µM under setting [1] came out at 52%. For the same compound, where the note is “Danio rerio”, the EC50 is above 10 µM. On to `CCN1CCc2c(sc(NC(=O)NCc3cccc(Cl)c3)c2C(N)=O)C1` [Example 75, 2-[3-(3-Chlorobenzyl)ureido]-6-ethyl-4,5,6,7-tetrahydrothieno[2,3-c]pyridine-3-carboxamide hydrochloride], for which the Emax at 25 µM under setting [1] was found to be 24%.
